The values below come from patent US20040087661A1, “Treatment of CNS disorders with trans 4-3(3,4-dichlorophenyl)-1,2,3,4-tetrahydro-N-methyl-1-napthalenamine” (Sepracor, Inc., priority 2002, published 2004).

In assay [1] the target is T1, functional uptake of norepinephrine (NE) (Rattus norvegicus, UniProt Q63380).
T1 construct: synaptosomes isolated at Cerep in a 0.32 M sucrose buffer from a male Wistar rat hypothalamus; tissue Cerep; host or cells: male Wistar rat hypothalamus synaptosomes
In words: Norepinephrine functional uptake assay in rat hypothalamus synaptosomes. Type of assay: biochemical. The settings on record: read-out: inhibition of NE uptake (no IC50 determined).
Protocol: Norepinephrine Functional Uptake Assay
Characterization of norepinephrine uptake is performed using synaptosomes isolated at Cerep in a 0.32 M sucrose buffer from a male Wistar rat hypothalamus. The uptake of radiolabeled norepinephrine by synaptosomes (100 μg of proteins/point) is allowed by incubating them in a deep well for 20 minutes at 37° C. in presence of test compounds and [^3H]-norepinephrine (0.1 μCi/point).
Synaptosomes and [^3H]-norepinephrine are prepared in a Krebs buffer pH 7.4 containing 25 mM NaHCO3, 11 mM glucose and 50 μM ascorbic acid. This incubation buffer is oxygenated during 5 minutes before incubation. Basal control is incubated for 20 minutes at 4° C. in order to avoid any uptake. Following this incubation the uptake is stopped by filtration through an “unifilter 96-wells GFB” Packard plate washed with Krebs buffer containing 25 mM NaHCO3 in order to eliminate the free [^3H]-norepinephrine. The radioactivity associated to the synaptosomes retained onto the unifilter corresponding to the uptake is then measured with a microplate scintillation counter Topcount, Packard using a scintillation liquid microscint 0, Packard.

For assay [2], the target named is T2, functional uptake of dopamine (DA) (Rattus norvegicus, UniProt P23977).
T2 construct: synaptosomes isolated at Cerep in a 0.32 M sucrose buffer from a male Wistar rat striatum; tissue Cerep; host or cells: male Wistar rat striatum synaptosomes
T2 sequence (P23977 whole entry): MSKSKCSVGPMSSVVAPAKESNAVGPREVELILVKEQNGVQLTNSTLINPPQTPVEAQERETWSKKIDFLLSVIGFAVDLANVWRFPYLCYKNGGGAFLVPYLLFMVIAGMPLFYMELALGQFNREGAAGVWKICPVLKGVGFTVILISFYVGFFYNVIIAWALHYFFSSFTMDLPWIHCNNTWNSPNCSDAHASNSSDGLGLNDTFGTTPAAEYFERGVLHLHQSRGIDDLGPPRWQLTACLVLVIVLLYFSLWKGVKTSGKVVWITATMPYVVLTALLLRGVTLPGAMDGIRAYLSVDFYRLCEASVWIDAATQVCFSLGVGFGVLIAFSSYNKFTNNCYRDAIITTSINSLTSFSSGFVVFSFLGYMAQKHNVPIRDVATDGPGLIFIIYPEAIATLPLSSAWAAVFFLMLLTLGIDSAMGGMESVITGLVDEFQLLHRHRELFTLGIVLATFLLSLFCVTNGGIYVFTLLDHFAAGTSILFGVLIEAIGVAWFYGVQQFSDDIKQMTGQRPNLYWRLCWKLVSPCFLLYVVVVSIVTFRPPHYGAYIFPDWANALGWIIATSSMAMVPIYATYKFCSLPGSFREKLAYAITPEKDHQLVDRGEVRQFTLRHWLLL
The experiment in a line: Dopamine functional uptake assay in rat striatum synaptosomes. It counts as biochemical. The settings on record: initial test at 10 μM in duplicate; read-out: inhibition of DA uptake (no IC50 determined).
Protocol: Dopamine Functional Uptake Assay
Characterization of dopamine uptake is performed using synaptosomes isolated at Cerep in a 0.32 M sucrose buffer from a male Wistar rat striatum. The uptake of radiolabelled dopamine by synaptosomes (20 μg of proteins/point) is allowed by incubating them in a deep well for 15 minutes at 37° C. in presence of test compounds and [^3H]-dopamine (0.1 μCi/point).
Synaptosomes and [^3H]-dopamine are prepared in a Krebs buffer pH 7.4 containing 25 mM NaHCO3, 11 mM glucose and 50 μM ascorbic acid. This incubation buffer is oxygenated during 5 minutes before incubation. Basal control is incubated for 15 minutes at 4° C. in order to avoid any uptake. Following this incubation the uptake is stopped by filtration through an “unifilter 96-wells GFB” Packard plate washed with Krebs buffer containing 25 mM NaHCO3 in order to eliminate the free [^3H]-dopamine. The radioactivity associated to the synaptosomes retained onto the unifilter corresponding to the uptake is then measured with a microplate scintillation counter Topcount, Packard using a scintillation liquid microscint 0, Packard.

Where two headings read alike, the source gives them in different places.

T1 sequence (Q63380 1-617): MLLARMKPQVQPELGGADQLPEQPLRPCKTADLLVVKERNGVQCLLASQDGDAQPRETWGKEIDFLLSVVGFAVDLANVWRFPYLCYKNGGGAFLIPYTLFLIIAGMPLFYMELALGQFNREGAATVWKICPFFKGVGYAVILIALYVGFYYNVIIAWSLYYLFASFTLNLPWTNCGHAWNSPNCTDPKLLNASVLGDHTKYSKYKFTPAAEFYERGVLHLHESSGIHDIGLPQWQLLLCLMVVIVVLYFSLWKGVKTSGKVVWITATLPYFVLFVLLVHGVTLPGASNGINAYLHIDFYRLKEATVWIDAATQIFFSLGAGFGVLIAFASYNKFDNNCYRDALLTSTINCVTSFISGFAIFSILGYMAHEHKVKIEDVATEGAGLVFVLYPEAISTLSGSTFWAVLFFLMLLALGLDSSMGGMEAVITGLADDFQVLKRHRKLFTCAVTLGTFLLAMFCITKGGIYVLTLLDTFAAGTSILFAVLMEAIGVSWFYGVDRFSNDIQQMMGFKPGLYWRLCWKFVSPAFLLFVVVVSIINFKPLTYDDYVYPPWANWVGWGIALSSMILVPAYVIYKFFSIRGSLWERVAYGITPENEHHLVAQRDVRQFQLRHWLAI

In the case of `Fc1ccc(C(OCCN2CCN(CCCc3ccccc3)CC2)c2ccc(F)cc2)cc1` [GBR 12909], the inhibition at 10 µM in assay [1] (initial test at 10 μM in duplicate) was less than 50%.

With `CN(C)CCCN1c2ccccc2CCc2ccccc21` [imipramine], the inhibition at 10 µM in assay [1] and in assay [2] was less than 50% in each case. Regarding `CNCCCC1c2ccccc2C=Cc2ccccc21` [protriptyline], the inhibition at 10 µM in assay [2] was less than 50%.
